Calls of active or inactive are those of the source. The rule behind the calls is not given here.
Experiments:
Mus musculus [1] = test: Antithrombotic activity in calcein-labelled platelet-mediated ferric chloride-induced arterial injury thrombosis C57BL/6J mouse model assessed as thrombus length at 100 mg/kg, po administrated twice a day measured upto 7 days (reference value: 4.4 +/- 0.4 mm); assay type: functional; details: time day <=7
[2] = Toxicity in C57BL/6J mouse assessed as change in mean platelet volume at 200 mg/kg twice daily for 60 days relative to control; assay type: organism-based; details: in vivo, 1440 h, time 60 day
Platelet [3] = test: Cytotoxicity against human platelet assessed as extracellular LDH levels changes at 1 mM incubated for 1 hrs; assay type: cell-based; details: 1000 µM
[4] = Suppression of glycoprotein IIb/IIIa activation in thrombin-stimulated human platelets by measuring activated GPIIb/IIIa at 0.10 mM measured after 3 hrs by PAC-1-FITC dye based flow cytometry (reference value: 90.1%); assay type: functional; details: Platelet, at 0.1 mM
[5] = Toxicity in C57BL/6J mouse assessed as change in bicarbonate level at 200 mg/kg twice daily for 60 days relative to control; assay type: organism-based; details: in vivo, 1440 h, time 60 day
[6] = Suppression of glycoprotein IIb/IIIa activation in thrombin-stimulated human platelets by measuring activated GPIIb/IIIa at 0.50 mM measured after 3 hrs by PAC-1-FITC dye based flow cytometry (reference value: 90.1%); assay type: functional; details: Platelet, at 0.5 mM
[7] = Suppression of glycoprotein IIb/IIIa activation in thrombin-stimulated human platelets by measuring activated GPIIb/IIIa at 0.01 mM measured after 3 hrs by PAC-1-FITC dye based flow cytometry (reference value: 90.1%); assay type: functional; details: Platelet
[8] = Toxicity against C57BL/6J mouse assessed as pancreas morphology at 200 mg/kg twice a day measured after 60 days; assay type: organism-based; details: in vivo, 1440 h, time 60 day
Mus musculus [9] = test: Antithrombotic activity in transient focal cerebral ischemic mouse model occlusion induced 60 mins of the right middle cerebral artery followed by reperfussion 23 hrs assessed as reduction of neurological deficits at 200 mg/kg, po twice daily for 7 days […]; assay type: functional, organism-based; details: time 7.0 day
[10] = Apparent clearance during terminal phase in Sprague-Dawley rat at 200 mg/kg, po measured by HPLC-MS/MS analysis; assay type: ADME, organism-based; details: in vivo
[11] = Inhibition of thrombin-stimulated human platelet aggregation by measuring aggregation at 0.50 mM measured after 2 hrs by scanning electron microscopy; assay type: functional; design: scale not given: the % may be the effect or the level left; details: dose 0.5 mM
Platelet [12] = test: Cytotoxicity against human platelet assessed as extracellular LDH levels changes at 1 mM incubated for 3 hrs; assay type: cell-based; details: 1000 µM
Platelet [13] = test: Inhibition of thrombin-stimulated human platelet aggregation at 1 mM measured after 3 hrs by scanning electron microscopy (Rvb= 87.2 +/- 4.0%); assay type: functional, tissue-based
Mus musculus [14] = test: Antithrombotic activity in calcein-labelled platelet-mediated ferric chloride-induced arterial injury thrombosis C57BL/6J mouse model assessed as average time to occlusive thrombosis at 50 mg/kg, po administrated twice a day measured upto 7 days (reference value: 7.9 +/- 0.7 min); assay type: functional; details: time day <=7
[15] = Toxicity against C57BL/6J mouse assessed as spleen morphology at 200 mg/kg twice a day measured after 60 days; assay type: organism-based; details: in vivo, 1440 h, time 60 day
Mus musculus [16] = test: Antithrombotic activity in calcein-labelled platelet-mediated ferric chloride-induced arterial injury thrombosis C57BL/6J mouse model assessed as average time to occlusive thrombosis at 100 mg/kg, po administrated twice a day measured upto 7 days (reference value: 7.9 +/- 0.7 min); assay type: functional; details: time day <=7
[17] = Toxicity against C57BL/6J mouse assessed as heart morphology at 200 mg/kg twice a day measured after 60 days; assay type: organism-based; details: in vivo, 1440 h, time 60 day
[18] = Toxicity against C57BL/6J mouse assessed as liver morphology at 200 mg/kg twice a day measured after 60 days; assay type: organism-based; details: in vivo, 1440 h, time 60 day
Mus musculus [19] = test: Antithrombotic activity in collagen-epinephrine induced pulmonary thromboembolism mouse model assessed as protection rate at 200 mg/kg, ig twice a day for 7 days followed by administered collagen-epinephrine relative to control; assay type: functional; details: time 7 day
Mus musculus [20] = test: Antithrombotic activity in transient focal cerebral ischemic mouse model occlusion induced 60 mins of the right middle cerebral artery followed by reperfussion 23 hrs assessed as decrease in blood viscosity at 200 mg/kg, po twice daily for 7 days; assay type: functional, organism-based; details: time 7.0 day
Mus musculus [21] = test: Antithrombotic activity in calcein-labelled platelet-mediated ferric chloride-induced arterial injury thrombosis C57BL/6J mouse model assessed as thrombus weight at 200 mg/kg, po administrated twice a day measured upto 7 days (reference value: 3.3 +/- 0.3 mg); assay type: functional; details: time day <=7
[22] = Suppression of P-selectin expression in thrombin-stimulated human platelets by measuring CD62P positive platelets at 0.50 mM after 3 hrs by flow cytometry analysis (reference value: 78.2%); assay type: functional; details: Platelet, at 0.5 mM
Mus musculus [23] = test: Antithrombotic activity in calcein-labelled platelet-mediated ferric chloride-induced arterial injury thrombosis C57BL/6J mouse model assessed as thrombus length at 300 mg/kg, po administrated twice a day measured upto 7 days (reference value: 4.4 +/- 0.4 mm); assay type: functional; details: time day <=7
[24] = Toxicity in C57BL/6J mouse assessed as change in chloride level at 200 mg/kg twice daily for 60 days relative to control; assay type: organism-based; details: in vivo, 1440 h, time 60 day
[25] = Suppression of P-selectin expression in thrombin-stimulated human platelets by measuring CD62P positive platelets at 0.10 mM after 3 hrs by flow cytometry analysis (reference value: 78.2%); assay type: functional; details: Platelet, at 0.1 mM
[26] = Inhibition of thrombin-stimulated human platelet aggregation by measuring aggregation at 0.50 mM measured after 1 hrs by scanning electron microscopy; assay type: functional; design: scale not given: the % may be the effect or the level left; details: dose 0.5 mM
Mus musculus [27] = test: Antithrombotic activity in calcein-labelled platelet-mediated ferric chloride-induced arterial injury thrombosis C57BL/6J mouse model assessed as thrombus weight at 300 mg/kg, po administrated twice a day measured upto 7 days (reference value: 3.3 +/- 0.3 mg); assay type: functional; details: time day <=7
[28] = Inhibition of thrombin-stimulated human platelet aggregation measured after 3 hrs by scanning electron microscopy; assay type: functional, tissue-based
Platelet [29] = test: Antiplatelet activity in thrombin-stimulated human platelet assessed as reduction in the clot retraction preincubated at 0.5 mM with fibrinogen for 3 hrs followed by added thrombin measured after 0.5 hrs (reference value: 80.3 =/- 5.5%); assay type: functional; design: scale not given: the % may be the effect or the level left; details: time 3.5 hrs
[30] = Suppression of P-selectin expression in thrombin-stimulated human platelets by measuring CD62P positive platelets at 1 mM after 3 hrs by flow cytometry analysis (reference value: 78.2%); assay type: functional; details: Platelet
Mus musculus [31] = test: Antithrombotic activity in calcein-labelled platelet-mediated ferric chloride-induced arterial injury thrombosis C57BL/6J mouse model assessed as thrombus length at 200 mg/kg, po administrated twice a day measured upto 7 days (reference value: 4.4 +/- 0.4 mm); assay type: functional; details: time day <=7
[32] = Toxicity in calcein-labelled platelet-mediated ferric chloride-induced arterial injury thrombosis po dosed C57BL/6J mouse model assessed as change in coagulation factor VII to XII treated twice a day measured upto 7 days; assay type: organism-based; details: in vivo, 168 h, time <=7 day
[33] = Inhibition of thrombin-stimulated human platelet aggregation by measuring aggregation at 0.01 mM measured after 3 hrs by scanning electron microscopy (Rvb= 87.2 +/- 4.0%); assay type: functional; design: scale not given: the % may be the effect or the level left
[34] = Toxicity in calcein-labelled platelet-mediated ferric chloride-induced arterial injury thrombosis po dosed C57BL/6J mouse model assessed as change in fibrinogen treated twice a day measured upto 7 days; assay type: organism-based; details: in vivo, 168 h, time <=7 day
[35] = Toxicity in C57BL/6J mouse assessed as change in creatinine level at 200 mg/kg twice daily for 60 days relative to control; assay type: organism-based; details: in vivo, 1440 h, time 60 day

CN(C)C(=N)NC(=N)NS(=O)(=O)C(F)(F)F
Activity (Mus musculus [1]): 2.8 mm
Activity [2]: Non-Toxic
Activity (Platelet [3]): Non-Toxic
level, % of control at 100 µM [4]: 44.5%
Activity [5]: Non-Toxic
level, % of control at 500 µM [6]: 37.5%
level, % of control at 10 µM [7]: 84.2%
Activity [8]: Non-Toxic
Activity (Mus musculus [9]): Active
CLz/F [10]: 16.6 mL/min/kg
Activity [11]: 35%
Activity (Platelet [12]): Non-Toxic
inhibition (Platelet [13]): inactive
Time (Mus musculus [14]): 10.1 min
Activity [15]: Non-Toxic
Time (Mus musculus [16]): 15.1 min
Activity [17]: Non-Toxic
Activity [18]: Non-Toxic
Activity (Mus musculus [19]): 70%
Activity (Mus musculus [20]): Active
Activity (Mus musculus [21]): 0.4 mg
level, % of control at 500 µM [22]: 45.2%
Activity (Mus musculus [23]): 1.4 mm
Activity [24]: Non-Toxic
level, % of control at 100 µM [25]: 54.7%
Activity [26]: 60%
Activity (Mus musculus [27]): 0.4 mg
IC50 [28]: 150 µM
Activity (Platelet [29]): 28.4%
level, % of control at 1000 µM [30]: 46.6%
Activity (Mus musculus [31]): 1.5 mm
Activity [32]: Non-Toxic
Activity [33]: 75.9%
Activity [34]: Non-Toxic
Activity [35]: Non-Toxic
